Activity calls are given as the source filed them.
Tests used:
[1] = target: T1, Rac GTPase-activating protein 1 (Homo sapiens, UniProt Q9H0H5); test: blockers of MgcRacGAP-driven Rac1 GTP hydrolysis – biochemical, ADP Hunter fluorescence, primary and confirmatory, confirmation (AID 624330); type: functional
T1 sequence (Q9H0H5 whole entry): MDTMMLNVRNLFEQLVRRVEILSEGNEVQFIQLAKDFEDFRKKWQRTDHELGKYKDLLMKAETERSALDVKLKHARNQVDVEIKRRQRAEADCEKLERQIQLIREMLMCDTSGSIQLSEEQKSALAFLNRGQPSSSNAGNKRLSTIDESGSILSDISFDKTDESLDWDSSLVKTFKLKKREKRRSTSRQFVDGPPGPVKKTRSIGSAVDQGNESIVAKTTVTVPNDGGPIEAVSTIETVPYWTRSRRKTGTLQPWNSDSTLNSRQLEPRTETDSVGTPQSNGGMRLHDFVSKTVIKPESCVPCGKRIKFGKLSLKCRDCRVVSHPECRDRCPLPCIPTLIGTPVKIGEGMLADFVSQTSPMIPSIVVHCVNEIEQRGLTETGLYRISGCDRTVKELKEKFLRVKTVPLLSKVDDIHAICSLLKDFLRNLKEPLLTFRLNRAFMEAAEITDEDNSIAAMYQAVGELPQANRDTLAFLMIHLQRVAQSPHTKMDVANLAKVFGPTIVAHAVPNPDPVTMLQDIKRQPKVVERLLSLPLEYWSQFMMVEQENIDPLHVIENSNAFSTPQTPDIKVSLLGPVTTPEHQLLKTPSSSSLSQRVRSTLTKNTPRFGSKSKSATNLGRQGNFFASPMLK

[2] = target: T2, Polyadenylate-binding protein 1 (Homo sapiens, UniProt P11940); test: MLLE binding blockers, Cy5 peptide tracer – biochemical, fluorescence polarization, Cy5-PAM2 peptide, secondary, miRNA deadenylation inhibitor project, dose response (AID 602260); type: functional; conditions: read-out: IC50_Mean
T2 sequence (P11940 whole entry, the tested form may be a part): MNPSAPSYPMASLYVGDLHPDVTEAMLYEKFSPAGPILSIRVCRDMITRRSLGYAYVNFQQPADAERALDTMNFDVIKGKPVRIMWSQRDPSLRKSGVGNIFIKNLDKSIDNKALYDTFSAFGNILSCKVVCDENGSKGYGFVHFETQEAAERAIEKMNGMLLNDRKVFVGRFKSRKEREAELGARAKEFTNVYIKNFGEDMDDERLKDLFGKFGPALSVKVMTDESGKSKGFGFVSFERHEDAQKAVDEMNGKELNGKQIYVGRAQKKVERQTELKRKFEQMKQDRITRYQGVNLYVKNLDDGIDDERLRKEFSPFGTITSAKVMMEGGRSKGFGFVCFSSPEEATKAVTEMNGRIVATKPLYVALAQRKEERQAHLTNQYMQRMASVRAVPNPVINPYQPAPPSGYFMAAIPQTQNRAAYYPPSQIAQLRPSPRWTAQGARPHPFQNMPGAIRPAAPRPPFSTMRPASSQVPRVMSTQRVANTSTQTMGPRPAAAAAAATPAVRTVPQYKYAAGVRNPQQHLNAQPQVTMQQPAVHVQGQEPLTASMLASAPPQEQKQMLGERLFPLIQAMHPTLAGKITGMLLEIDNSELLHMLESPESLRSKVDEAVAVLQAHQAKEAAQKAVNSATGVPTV

[3] = target: T2, Polyadenylate-binding protein 1; test: MLLE domain peptide-binding blockers, IC50 – biochemical, fluorescence polarization, FITC-PAM2 peptide, dose response (AID 602259); type: functional; conditions: read-out: IC50_Mean
[4] = target: T3, Cytochrome P450 1A2 (Homo sapiens, UniProt P05177);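 also: PubChem cytochrome P450 panel assay, CYP1A2 panel member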
T3 sequence (P05177 whole entry): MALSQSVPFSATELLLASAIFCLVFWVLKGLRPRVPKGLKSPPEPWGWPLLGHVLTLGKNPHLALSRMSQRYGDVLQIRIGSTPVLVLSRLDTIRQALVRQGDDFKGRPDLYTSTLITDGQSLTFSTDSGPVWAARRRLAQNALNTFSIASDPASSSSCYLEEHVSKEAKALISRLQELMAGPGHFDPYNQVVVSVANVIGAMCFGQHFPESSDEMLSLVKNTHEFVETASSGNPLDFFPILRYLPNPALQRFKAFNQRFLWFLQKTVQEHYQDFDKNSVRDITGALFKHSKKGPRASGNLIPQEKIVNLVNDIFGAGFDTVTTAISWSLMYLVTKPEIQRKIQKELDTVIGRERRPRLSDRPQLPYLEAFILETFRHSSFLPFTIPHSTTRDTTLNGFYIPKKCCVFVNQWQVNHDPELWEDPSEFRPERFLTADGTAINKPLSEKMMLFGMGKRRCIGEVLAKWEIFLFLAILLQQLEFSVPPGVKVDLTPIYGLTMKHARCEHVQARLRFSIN

[5] = target: Cytochrome P450 2C9 (Homo sapiens, UniProt P11712)
Sequence of Cytochrome P450 2C9 (P11712 whole entry): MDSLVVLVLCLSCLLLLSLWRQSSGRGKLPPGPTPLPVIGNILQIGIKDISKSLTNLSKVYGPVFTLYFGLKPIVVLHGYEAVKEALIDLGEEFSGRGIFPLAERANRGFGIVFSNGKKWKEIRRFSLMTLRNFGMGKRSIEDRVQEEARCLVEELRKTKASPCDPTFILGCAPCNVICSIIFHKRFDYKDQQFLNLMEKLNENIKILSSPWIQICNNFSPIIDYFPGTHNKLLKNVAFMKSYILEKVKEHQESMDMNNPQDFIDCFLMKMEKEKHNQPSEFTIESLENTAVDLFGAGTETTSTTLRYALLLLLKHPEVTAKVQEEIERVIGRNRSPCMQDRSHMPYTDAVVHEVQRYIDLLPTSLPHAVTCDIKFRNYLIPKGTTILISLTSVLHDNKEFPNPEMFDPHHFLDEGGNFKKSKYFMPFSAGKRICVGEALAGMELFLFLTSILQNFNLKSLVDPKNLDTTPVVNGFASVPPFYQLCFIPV

[6] = viability of uninfected HEp-2 cells – cell-based, HTS, cytotoxicity control for RSV inhibitor project, dose response (AID 2410); type: functional; conditions: human respiratory syncytial virus
[7] = microbe, parasite or virus in culture; type: functional; conditions: Mycobacterium tuberculosis
[8] = Luminescence Cell-Based Dose Retest to Confirm Inhibitors of Cancer Stem Cells. [Related pubchem assays (depositor defined):AID2717, AID2721]; type: functional; conditions: Homo sapiens
[9] = cells; type: functional, cell-based
[10] = cells; type: functional, cell-based; remark: listed apart in the source
[11] = target: T4, Heat shock factor protein 1 (Mus musculus, UniProt P38532); test: decrease of HSF1-responsive luciferase luminescence – cell-based, NIH3T3, dose retest, confirmation (AID 2382); type: functional;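 also: NIH3T3 fibroblasts with HSF1-driven luciferase reporter stressed by proteasome inhibitor MG132; luminescence from HSF1-driven luciferase expression after 8 hours of MG132 stress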
T4 sequence (P38532 whole entry): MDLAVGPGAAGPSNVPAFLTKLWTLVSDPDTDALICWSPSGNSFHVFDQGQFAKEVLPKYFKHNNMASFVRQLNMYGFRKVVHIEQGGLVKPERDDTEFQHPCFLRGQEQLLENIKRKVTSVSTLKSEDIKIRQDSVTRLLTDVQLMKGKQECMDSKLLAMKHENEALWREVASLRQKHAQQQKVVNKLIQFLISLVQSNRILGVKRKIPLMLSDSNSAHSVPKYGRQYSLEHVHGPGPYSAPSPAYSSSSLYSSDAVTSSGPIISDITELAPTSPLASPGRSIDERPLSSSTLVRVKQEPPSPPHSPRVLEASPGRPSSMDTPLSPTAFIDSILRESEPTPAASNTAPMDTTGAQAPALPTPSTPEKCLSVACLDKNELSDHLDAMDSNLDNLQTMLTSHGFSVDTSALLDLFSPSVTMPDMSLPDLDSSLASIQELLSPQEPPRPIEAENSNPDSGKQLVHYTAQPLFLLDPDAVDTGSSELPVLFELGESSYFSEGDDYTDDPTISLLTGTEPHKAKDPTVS

[12] = viability of PTEN-deleted HCT116 cells – cell-based, HCT116 PTEN knockout, dose response (AID 1047); type: functional;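 also: HCT116 colon tumor cells with PTEN knocked out; cells exposed to compound for 60 hours before readout; potency for loss of cell viability measured by luminescence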
[13] = viability of HCT116 lacking mutant beta-catenin – cell-based, human colon tumor, dose response (AID 1045); type: functional;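 also: HCT116 colon tumor cells with beta catenin knocked out; cells exposed to compound for 60 hours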
[14] = target: Cytochrome P450 2C19 (Homo sapiens, UniProt P33261); test: Cytochrome panel assay with activity outcomes. Panel member name: p450-cyp2c19 Compounds with AC50 equal or less than 10 uM are considered active; type: functional; conditions: read-out: AC50
Sequence of Cytochrome P450 2C19 (P33261 whole entry): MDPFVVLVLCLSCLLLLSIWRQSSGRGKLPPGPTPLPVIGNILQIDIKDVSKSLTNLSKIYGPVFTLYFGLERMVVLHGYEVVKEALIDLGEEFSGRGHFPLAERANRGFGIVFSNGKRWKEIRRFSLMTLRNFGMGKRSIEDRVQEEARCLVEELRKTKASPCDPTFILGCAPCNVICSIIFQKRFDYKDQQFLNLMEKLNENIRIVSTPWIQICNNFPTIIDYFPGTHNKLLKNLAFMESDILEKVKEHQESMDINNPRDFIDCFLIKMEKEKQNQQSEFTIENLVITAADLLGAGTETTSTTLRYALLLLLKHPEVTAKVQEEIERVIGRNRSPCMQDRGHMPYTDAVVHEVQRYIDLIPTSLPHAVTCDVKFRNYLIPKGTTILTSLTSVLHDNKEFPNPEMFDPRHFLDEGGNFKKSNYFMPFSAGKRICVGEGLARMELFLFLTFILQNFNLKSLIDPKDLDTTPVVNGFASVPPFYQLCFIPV

[15] = HEK-293T cell viability reduction – luminescence, B-cell screen hits, cytotoxicity control for BCR NF-kB inhibitor project, dose response (AID 489021); type: functional, cell-based;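 also: HEK-293T cells carrying an NF-kB luciferase reporter; cells exposed to compound for about 14 hours before viability readout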
[16] = target: T5, Protein skinhead-1 (Caenorhabditis elegans, UniProt P34707); type: functional
T5 sequence (P34707 whole entry): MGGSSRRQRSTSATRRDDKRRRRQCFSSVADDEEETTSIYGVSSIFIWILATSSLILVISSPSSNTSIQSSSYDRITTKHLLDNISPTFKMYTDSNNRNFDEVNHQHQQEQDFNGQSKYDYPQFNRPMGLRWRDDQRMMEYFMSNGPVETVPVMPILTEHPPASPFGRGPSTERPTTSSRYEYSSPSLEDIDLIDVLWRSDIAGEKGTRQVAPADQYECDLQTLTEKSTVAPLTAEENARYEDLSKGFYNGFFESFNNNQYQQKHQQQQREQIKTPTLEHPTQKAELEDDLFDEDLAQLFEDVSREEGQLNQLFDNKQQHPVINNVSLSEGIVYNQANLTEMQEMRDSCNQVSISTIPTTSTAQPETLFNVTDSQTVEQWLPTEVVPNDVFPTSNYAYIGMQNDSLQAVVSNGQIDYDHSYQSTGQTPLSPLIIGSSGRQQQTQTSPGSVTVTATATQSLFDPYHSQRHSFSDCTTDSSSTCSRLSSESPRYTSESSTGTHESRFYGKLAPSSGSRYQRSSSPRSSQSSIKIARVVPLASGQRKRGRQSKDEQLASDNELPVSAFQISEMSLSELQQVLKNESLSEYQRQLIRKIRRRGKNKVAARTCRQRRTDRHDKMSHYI

[17] = target: FAD-linked sulfhydryl oxidase ALR (Homo sapiens, UniProt P55789); test: ALR-catalysed DTT oxidation blockers – biochemical, H2O2 detection, luminescence, cherry-pick, dose response (AID 493248)
Sequence of FAD-linked sulfhydryl oxidase ALR (P55789 whole entry): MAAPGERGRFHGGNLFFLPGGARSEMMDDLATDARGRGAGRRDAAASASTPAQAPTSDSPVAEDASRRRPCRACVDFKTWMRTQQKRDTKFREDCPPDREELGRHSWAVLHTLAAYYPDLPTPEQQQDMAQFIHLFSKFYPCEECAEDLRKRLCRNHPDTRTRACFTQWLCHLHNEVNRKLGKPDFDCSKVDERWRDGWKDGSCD

[18] = target: Paired box protein Pax-8 (Homo sapiens, UniProt Q06710); test: PAX8 transcriptional activity inhibition in RMG-I – RMG-I cells, luciferase, cherry-pick, dose response (AID 687027); type: functional, cell-based;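 also: luciferase reporter driven by Pax8 target thyroperoxidase promoter measured by SteadyGlo luminescence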
Sequence of Paired box protein Pax-8 (Q06710 whole entry): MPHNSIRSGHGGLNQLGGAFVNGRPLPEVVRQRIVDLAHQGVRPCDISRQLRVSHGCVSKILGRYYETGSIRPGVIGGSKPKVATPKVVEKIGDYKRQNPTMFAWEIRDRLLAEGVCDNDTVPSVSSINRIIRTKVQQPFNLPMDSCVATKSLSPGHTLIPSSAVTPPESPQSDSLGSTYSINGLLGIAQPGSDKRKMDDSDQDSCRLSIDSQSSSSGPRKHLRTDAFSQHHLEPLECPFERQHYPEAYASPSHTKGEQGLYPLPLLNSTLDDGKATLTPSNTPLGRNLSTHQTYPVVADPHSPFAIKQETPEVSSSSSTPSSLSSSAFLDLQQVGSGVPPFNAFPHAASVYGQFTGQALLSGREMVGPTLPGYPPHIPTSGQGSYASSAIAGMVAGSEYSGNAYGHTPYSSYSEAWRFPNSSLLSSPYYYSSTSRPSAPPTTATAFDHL

[19] = test system: INS1; test: INS-1E survival protection against cytokine death – cell-based, luminescence, retest, dose response (AID 449756); type: functional; conditions: Rattus norvegicus;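 also: cell death triggered by IL-1 beta plus TNF-alpha plus IFN-gamma mixture; protective hits raise ATP signal compared with cytokine alone wells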

## Nc1ccc(Nc2nc(-c3ccncc3)cs2)cc1
[1]
  IC50: 9.36 µM (active)

## FC(F)(F)c1cccc(NC(S)=NN=C(S)NCc2ccccc2)c1
[2]
  IC50: > 66 µM (inactive)
[3]
  IC50: > 66 µM (inactive)

## CC1CCN(C(=S)c2ccc(O)cc2)CC1
[2]
  IC50: > 66 µM (inactive)
[3]
  IC50: > 66 µM (inactive)
[4]
  AC50: 14.1 µM (inconclusive)
[5]
  AC50: 39.8 µM (inconclusive)

## CC(C)c1ccccc1NC(=O)c1cccc(NC(=O)c2ccccc2)c1
[6]
  CC50: 20.3 µM (active)

## Cc1onc(-c2ccccc2Cl)c1C(=O)Nc1sc2c(c1C(N)=O)CCC(C)C2 (centres undefined)
[6]
  CC50: 19.3 µM (active)

## Cc1oc(C)c2c(=O)ccc3c(c12)OC(N)=C(C#N)C3c1ccccc1Cl (centres undefined)
[7]
  CC50: > 40 µM (active)

## COc1ccc(N2CCC(CN=C(S)Nc3cccc(C)c3)C2)cc1 (centres undefined)
[1]
  IC50: 39.3 µM (active)

## COc1ccc(Br)cc1C(=O)NC(=S)Nc1cc(-c2nc3ccccc3[nH]2)ccc1C
[8]
  AC50: > 195 µM (inactive)
[2]
  IC50: > 66 µM (inactive)
[3]
  IC50: > 66 µM (inactive)

## CCCCNC(=O)CN1C(=O)COc2ccc(S(=O)(=O)N3CCCCCC3)cc21
[9]
  EC50: > 350 µM (not active)
[10]
  EC50: > 350 µM (not active)

## CC(=O)C[C@H]1c2cc(F)ccc2S(=O)(=O)N1c1ccc(N(C)C)cc1
[11]
  EC50: 33.8 µM (active)
[1]
  IC50: 119 µM (active)

## CN(C)c1ccc(N=Nc2ccc(S(N)(=O)=O)cc2)cc1
[9]
  EC50: > 350 µM (not active)
[10]
  EC50: 3.13 µM (active)

## CCOC(=O)C1SC2(C(F)(F)F)CC1(O)c1c(C)cc(C)nc1O2 (centres undefined)
[2]
  IC50: > 66 µM (inactive)
[3]
  IC50: > 66 µM (inactive)

## CCc1cccc2c(C(=O)CCl)c[nH]c12
[7]
  CC50: 24.4 µM (active)

## CCC(C)c1ccc2oc(-c3ccc(NC(=O)Cn4cnc5c(=O)n(C)c(=O)n(C)c54)cc3)nc2c1 (centres undefined)
[9]
  EC50: > 350 µM (not active)
[10]
  EC50: 43.7 µM (active)
[12]
  EC50: 9.27 µM (active)
[13]
  EC50: 8.52 µM (active)

## COc1ccc(CN2CCCN(C)CC2)c(OC)c1C
[1]
  IC50: 124 µM (active)

## C=CCN1C(=O)/C(=C\c2ccc(Cl)cc2)N=C1SCC(=O)NC1CCCCC1
[2]
  IC50: > 66 µM (inactive)
[3]
  IC50: > 66 µM (inactive)

## CN1C(=S)SC(N(O)C(=O)Nc2ccc(Cl)c(Cl)c2)C1(C)C (centres undefined)
[7]
  CC50: 38.9 µM (active)

## Cc1ccccc1SCC(=O)OCC(=O)Nc1ccc(N(C)C)cc1
[1]
  IC50: 66.7 µM (active)

## O=C(O)CCC(C(=O)O)N1C(=O)/C(=C2/C(=O)Nc3ccccc32)SC1=S (centres undefined)
[2]
  IC50: > 66 µM (inactive)
[3]
  IC50: > 66 µM (inactive)

## O=C(CN1C(=O)c2ccccc2S1(=O)=O)c1ccc(O)c(O)c1
[1]
  IC50: 175 µM (active)

## CS(=O)(=O)n1nc(-c2ccccc2)nc1NCc1ccco1
[9]
  EC50: > 350 µM (not active)
[10]
  EC50: > 350 µM (not active)

## COCCNCCOCCOc1ccc(Cl)c(C)c1
[1]
  IC50: 138 µM (active)

## CC[C@H](C)[C@@H]1O[C@@]2(C=CC1C)CC1C[C@@H](CC=C(C)C(O[C@H]3CC(OC)C(O[C@H]4CC(OC)C(O)C(C)O4)C(C)O3)C(C)C=CC=C3CO[C@@H]4C(O)C(C)=C[C@@H](C(=O)O1)[C@]34O)O2 (some centres undefined)
[7]
  CC50: 15.9 µM (active)

## O=C(Nc1ccc2c(c1)Cc1ccccc1-2)c1cccnc1
[6]
  CC50: 20.3 µM (active)

## COc1cccc(NC(=O)CSC(N)=O)c1
[2]
  IC50: > 66 µM (inactive)
[3]
  IC50: > 66 µM (inactive)

## COc1ccc(CNc2ccc(S(N)(=O)=O)cc2)cc1
[2]
  IC50: > 66 µM (inactive)
[3]
  IC50: > 66 µM (inactive)

## CCOc1ccc(N(C(=O)/C=C/C(=O)Nc2cc(C)on2)C(C(=O)NC2CCCC2)c2ccccc2C)cc1 (centres undefined)
[7]
  CC50: 20.2 µM (active)
[14]
  AC50: 31.6 µM (inconclusive)

## COc1ccc(OC)c(S(=O)(=O)Nc2ccc(-c3ccc4nnc(C)n4n3)cc2)c1
[15]
  IC50: > 80 µM (inactive)

## CC/C(=C\c1ccc(N(C)C)cc1)c1ccncc1
[16]
  IC50: > 100 µM (inactive)
[1]
  IC50: 30.2 µM (active)

## O=C(CN1CCN(c2ccc(O)cc2)CC1)N(C1CC1)C1CCS(=O)(=O)C1 (centres undefined)
[17]
  AC50: 238 nM (active)
[1]
  IC50: 80.2 µM (active)

## COC(=O)C1CCN(C(=O)COC(=O)/C=C/c2ccc(O)c(OC)c2)CC1
[1]
  IC50: 49.7 µM (active)

## C[C@H](CO)N1C[C@H](C)[C@@H](CN(C)C(=O)NC2CCCCC2)Oc2cc(C#Cc3ccc(F)cc3)ccc2S1(=O)=O
[18]
  AC50: 9.52 µM (active)

## C[C@@H]1CN([C@@H](C)CO)C(=O)c2cc(NC(=O)Nc3ccc(C(F)(F)F)cc3)ccc2O[C@@H](C)CCCCO[C@@H]1CN(C)CC1CCCCC1
[18]
  AC50: 3.9 µM (active)

## CC(C)c1ccc(/C=N/N2CCN(c3ccccn3)CC2)cc1
[6]
  CC50: 35.7 µM (active)

## CCOC(=O)C(/C=N/c1ccc(NC2=NCC(C)S2)cc1)=C(/O)OCC (centres undefined)
[9]
  EC50: > 350 µM (not active)
[10]
  EC50: > 350 µM (not active)

## CCN(CC)S(=O)(=O)c1ccc(N/N=C/c2cc(OC)ccc2O)nc1
[9]
  EC50: 302 µM (active)
[10]
  EC50: 25.7 µM (active)
[8]
  AC50: 4.47 µM (active)
[19]
  AC50: 1.69 µM (active)

## COC(=O)c1cc(=O)n(Cc2ccc3c(c2)OCO3)/c(=N/c2ccc(F)cc2)s1
[6]
  CC50: 33.2 µM (active)
[12]
  EC50: 27.9 µM (active)
[13]
  EC50: 26.2 µM (active)

From ChEMBL document CHEMBL1201862, “PubChem BioAssay data set” (2004)
